In patent publication US9090593B2, “Bicyclic compounds as Pim inhibitors” (AMGEN INC., priority 2010, dated 2015):

Assays:
[1] = molecular target: T1, Pim-1 stably transfected into the U2OS human osteogenic sarcoma line (Homo sapiens, UniProt P11309); experiment: Pim cell assay, phospho-BAD normalized against total BAD, U2OS stably transfected with Pim-1; type: cell-based; details: U2OS cells stably transfected with Pim-1, phospho-BAD; high dose […]; read-out: Pim1_Cell_IC50
T1 construct: expressed in transfected cells; host or cells: U2OS human osteogenic sarcoma line
T1 sequence (P11309 whole entry): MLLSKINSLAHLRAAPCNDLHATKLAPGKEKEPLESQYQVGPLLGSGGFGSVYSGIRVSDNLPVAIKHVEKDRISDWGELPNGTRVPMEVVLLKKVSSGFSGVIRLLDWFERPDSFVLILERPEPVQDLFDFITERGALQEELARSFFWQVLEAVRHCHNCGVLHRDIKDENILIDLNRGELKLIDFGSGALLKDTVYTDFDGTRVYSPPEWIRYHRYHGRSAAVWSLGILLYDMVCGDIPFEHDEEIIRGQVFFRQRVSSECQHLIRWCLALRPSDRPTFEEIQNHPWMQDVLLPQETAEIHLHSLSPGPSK
How it was run: (§1)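 Read-out is phospho-BAD relative to total BAD, by MSD electrochemiluminescence on lysates, expressed as % phosphoprotein = (2×phospho)/(phospho+total)×100. Engineered U2OS lines carrying stably transfected Pim-1 or Pim-2 received 10-point compound dilutions at 0.3% final DMSO after overnight culture at 37 °C; DMSO-only wells served as high control.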

[2] = molecular target: T2, Pim-2 stably transfected into the U2OS human osteogenic sarcoma line (Homo sapiens, UniProt Q9P1W9); experiment: Pim cell assay, phospho-BAD normalized against total BAD, U2OS stably transfected with Pim-2; type: cell-based; details: U2OS cells stably transfected with Pim-2, phospho-BAD; high dose […]; read-out: Pim2_Cell_IC50; further: high dose 31.6 µM
T2 construct: expressed in transfected cells; host or cells: U2OS human osteogenic sarcoma line
T2 sequence (Q9P1W9 whole entry): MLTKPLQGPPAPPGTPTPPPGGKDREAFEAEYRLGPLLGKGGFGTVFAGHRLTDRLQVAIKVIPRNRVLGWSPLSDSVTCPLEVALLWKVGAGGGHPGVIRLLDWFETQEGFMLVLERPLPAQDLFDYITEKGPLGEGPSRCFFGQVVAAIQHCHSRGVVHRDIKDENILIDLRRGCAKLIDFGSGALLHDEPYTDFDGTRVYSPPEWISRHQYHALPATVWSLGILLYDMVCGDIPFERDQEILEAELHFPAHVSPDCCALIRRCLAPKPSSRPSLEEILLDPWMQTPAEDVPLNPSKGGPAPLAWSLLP
How it was run: as §1

[3] = molecular target: T3, full length recombinant Pim-3 protein (Homo sapiens, UniProt Q86V86); experiment: Pim-3 enzyme assay (HTRF, phosphorylation of biotinylated-BAD (S112) peptide); type: biochemical; details: read-out: Pim3 IC50
T3 construct: by full length recombinant Pim-1, Pim-2, or Pim-3 protein; purchased Millipore (UK)
How it was run: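 HTRF read-out, streptavidin-APC plus Eu-labelled anti-phospho-BAD (S112) antibody, measures BAD peptide phosphorylation by full-length recombinant Pim-3. Buffer: 60 mM Hepes pH 7.0, 2 mM DTT, 0.05% BSA; EDTA (3 mM) stop. Percent of control per well, IC50 by 4-parameter logistic fit.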

[4] = molecular target: T4, full length recombinant Pim-2 protein (Homo sapiens, UniProt Q9P1W9); experiment: Pim-2 enzyme assay (HTRF, phosphorylation of biotinylated-BAD (S112) peptide); type: biochemical; details: enzyme assay, Pim-2; read-out: Pim2_IC50
T4 construct: by full length recombinant Pim-1, Pim-2, or Pim-3 protein; hexahistidine tag followed by a thrombin cleavage site (N); made in house; host or cells: Sf9 (baculovirus) or E. coli (pET28)
T4 sequence (Q9P1W9 whole entry): as the sequence (Q9P1W9 whole entry) above
How it was run: (§2)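 Each full-length human Pim enzyme phosphorylates a biotinylated BAD (S112) peptide, and the product is sensed by Eu anti-phospho-BAD antibody with streptavidin-APC after quenching with 3 mM EDTA. Conditions: 60 mM Hepes pH 7.0, 0.05% BSA, 2 mM DTT.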

[5] = molecular target: T5, full length recombinant Pim-1 protein (Homo sapiens, UniProt P11309); experiment: Pim-1 enzyme assay (HTRF, phosphorylation of biotinylated-BAD (S112) peptide); type: biochemical; details: enzyme assay, Pim-1; read-out: Pim_1_IC50
T5 construct: by full length recombinant Pim-1, Pim-2, or Pim-3 protein; hexahistidine tag followed by a thrombin cleavage site (N); made in house; host or cells: Sf9 (baculovirus) or E. coli (pET28)
T5 sequence (P11309 whole entry): as the sequence (P11309 whole entry) above
How it was run: as §2

Row | Compound | IC50 [1] | IC50 [2] | IC50 [3] | IC50 [4] | IC50 [5]
1 | N#Cc1cccc(-c2ccc3[nH]nc(-c4cncc(N5CCC(N)CC5)n4)c3c2)c1 [Example 62, 3-(3-(6-(4-amino-1-piperidinyl)-2-pyrazinyl)-1H-indazol-5-yl)benzonitrile] | 599 nM | > 31600 nM | 7 nM | 59 nM | 11 nM
2 | COc1cccc(-c2ccc3[nH]nc(-c4cncc(N5CCC(N)CC5)n4)c3c2)n1 [Example 63, 1-(6-(5-(6-methoxy-2-pyridinyl)-1H-indazol-3-yl)-2-pyrazinyl)-4-piperidinamine] | 1690 nM | > 31600 nM | 8 nM | 161 nM | 11 nM
3 | CC(C)Oc1cccc(-c2ccc3[nH]nc(-c4cncc(N5CCC(N)CC5)n4)c3c2)n1 [Example 64, 1-(6-(5-(6-(1-methylethoxy)-2-pyridinyl)-1H-indazol-3-yl)-2-pyrazinyl)-4-piperidinamine] | 3020 nM | > 31600 nM | 16 nM | 150 nM | 20 nM
4 | CCOc1cccc(-c2ccc3[nH]nc(-c4cncc(N5CCC(N)CC5)n4)c3c2)n1 [Example 65, 1-(6-(5-(6-ethoxy-2-pyridinyl)-1H-indazol-3-yl)-2-pyrazinyl)-4-piperidinamine] | 3530 nM | > 31600 nM | 18 nM | 274 nM | 13 nM
5 | NC1CCN(c2cncc(-c3n[nH]c4ccc(-c5cccc(F)n5)cc34)n2)CC1 [Example 66, 1-(6-(5-(6-fluoro-2-pyridinyl)-1H-indazol-3-yl)-2-pyrazinyl)-4-piperidinamine] | 401 nM | 17300 nM | 2 nM | 33 nM | 4 nM
6 | NC1CCN(c2cncc(-c3n[nH]c4ccc(-c5ccccc5F)cc34)n2)CC1 [Example 67, 1-(6-(5-(2-fluorophenyl)-1H-indazol-3-yl)-2-pyrazinyl)-4-piperidinamine] | 380 nM | 15000 nM | 1 nM | 10 nM | 2 nM
7 | NC1CCN(c2cncc(-c3n[nH]c4ccc(-c5cccnc5O)cc34)n2)CC1 [Example 68, 3-(3-(6-(4-amino-1-piperidinyl)-2-pyrazinyl)-1H-indazol-5-yl)-2-pyridinol] | > 31600 nM | > 31600 nM | 11 nM | 88 nM | 20 nM
8 | COc1cc(-c2ccc3[nH]nc(-c4cncc(N5CCC(N)CC5)n4)c3c2)c(F)cn1 [Example 70, 1-(6-(5-(5-fluoro-2-methoxy-4-pyridinyl)-1H-indazol-3-yl)-2-pyrazinyl)-4-piperidinamine] | 255 nM | > 31600 nM | 4 nM | 18 nM | 5 nM
9 | NC1CCN(c2cncc(-c3n[nH]c4ccc(-c5cccc(F)c5F)cc34)n2)CC1 [Example 71, 1-(6-(5-(2,3-difluorophenyl)-1H-indazol-3-yl)-2-pyrazinyl)-4-piperidinamine] | 256 nM | 8820 nM | 1 nM | 11 nM | 3 nM
10 | NC1CCN(c2cncc(-c3n[nH]c4ccc(-c5ccccc5O)cc34)n2)CC1 [Example 72, 2-(3-(6-(4-amino-1-piperidinyl)-2-pyrazinyl)-1H-indazol-5-yl)phenol] | 533 nM | > 31600 nM | 5 nM | 82 nM | 3 nM
11 | NC1CCN(c2cncc(-c3n[nH]c4ccc(-c5cc(=O)[nH]cc5Cl)cc34)n2)CC1 [Example 74, 4-(3-(6-(4-amino-1-piperidinyl)-2-pyrazinyl)-1H-indazol-5-yl)-5-chloro-2(1H)-pyridinone] | > 31600 nM | > 31600 nM | 15 nM | 54 nM | 14 nM
12 | NC1CCN(c2cncc(-c3n[nH]c4ccc(-c5ccccc5)cc34)n2)CC1 [Example 75, 1-(6-(5-phenyl-1H-indazol-3-yl)-2-pyrazinyl)-4-piperidinamine] | 480 nM | > 31600 nM | 3 nM | 49 nM | 7 nM
13 | CS(=O)(=O)c1cccc(-c2ccc3[nH]nc(-c4cncc(N5CCC(N)CC5)n4)c3c2)c1 [Example 76, 1-(6-(5-(3-(methylsulfonyl)phenyl)-1H-indazol-3-yl)-2-pyrazinyl)-4-piperidinamine] | 2740 nM | > 31600 nM | 5 nM | 187 nM | 16 nM
14 | COc1cccc(-c2ccc3[nH]nc(-c4cncc(N5CCC(N)CC5)n4)c3c2)c1 [Example 77, 1-(6-(5-(3-methoxyphenyl)-1H-indazol-3-yl)-2-pyrazinyl)-4-piperidinamine] | 453 nM | > 31600 nM | 3 nM | 70 nM | 6 nM
15 | NC1CCN(c2cncc(-c3n[nH]c4ccc(-c5cccc(O)c5)cc34)n2)CC1 [Example 78, 3-(3-(6-(4-amino-1-piperidinyl)-2-pyrazinyl)-1H-indazol-5-yl)phenol] | 885 nM | 7970 nM | 1 nM | 27 nM | 2 nM
16 | NC1CCN(c2cncc(-c3n[nH]c4ccc(-c5ccn[nH]5)cc34)n2)CC1 [Example 80, 1-(6-(5-(1H-pyrazol-5-yl)-1H-indazol-3-yl)-2-pyrazinyl)-4-piperidinamine] | 2380 nM | > 31600 nM | 1 nM | 15 nM | 3 nM
17 | Nc1cccc(-c2ccc3[nH]nc(-c4cncc(N5CCC(N)CC5)n4)c3c2)c1 [Example 81, 1-(6-(5-(3-aminophenyl)-1H-indazol-3-yl)-2-pyrazinyl)-4-piperidinamine] | 395 nM | 7170 nM | 3 nM | 29 nM | 2 nM
18 | NC1CCN(c2cncc(-c3n[nH]c4ccc(-c5ccccc5Cl)cc34)n2)CC1 [Example 83, 1-(6-(5-(2-chlorophenyl)-1H-indazol-3-yl)-2-pyrazinyl)-4-piperidinamine] | 1420 nM | 22100 nM | 4 nM | 34 nM | 10 nM
19 | NC1CCN(c2cncc(-c3n[nH]c4ccc(-c5cc([N+](=O)[O-])ccc5F)cc34)n2)CC1 [Example 84, 1-(6-(5-(2-fluoro-5-nitrophenyl)-1H-indazol-3-yl)-2-pyrazinyl)-4-piperidinamine] | 253 nM | > 31600 nM | 4 nM | 45 nM | 9 nM
20 | NC1CCN(c2cncc(-c3n[nH]c4ccc(-c5cncc(F)c5)cc34)n2)CC1 [Example 85, 1-(6-(5-(5-fluoro-3-pyridinyl)-1H-indazol-3-yl)-2-pyrazinyl)-4-piperidinamine] | 176 nM | 7020 nM | 1 nM | 36 nM | 5 nM
21 | COc1cc(OC)cc(-c2ccc3[nH]nc(-c4cncc(N5CCC(N)CC5)n4)c3c2)c1 [Example 86, 1-(6-(5-(3,5-dimethoxyphenyl)-1H-indazol-3-yl)-2-pyrazinyl)-4-piperidinamine] | 328 nM | 20300 nM | 2 nM | 60 nM | 6 nM
